2 compounds from patent US8178517B2, “6-methylvitamin D3 analogs and their uses” (Wisconsin Alumni Research Foundation, priority 2009, dated 2012) can be followed below.

The term EC50 denotes the concentration at which the effect is half-maximal. A word on the Ki: it is a dissociation constant, usually derived from enzyme kinetics or from competition with a known ligand.

For data set [1], the system named is HL-60 cells. The experiment in a line: HL-60 differentiation (nitro blue tetrazolium reduction). The format is cell-based, human. The note with it: for EC50: Homo sapiens, HL-60 cells, differentiation into monocytes, FIG. 2, read-out: EC50, HL-60 cell differentiation. As for the experimental part:
Serial dilutions were prepared so that a range of drug concentrations could be tested without changing the final concentration of ethanol (≦0.2%) present in the cell cultures.
Human promyelocytic leukemia (HL60) cells were grown in RPMI-1640 medium containing 10% fetal bovine serum. The cells were incubated at 37° C. in the presence of 5% CO2.
HL60 cells were plated at 1.2×10^5 cells/ml. Eighteen hours after plating, cells in duplicate were treated with drug. Four days later, the cells were harvested and a nitro blue tetrazolium reduction assay was performed (Collins et al., 1979; J. Exp. Med. 149:969-974). The percentage of differentiated cells was determined by counting a total of 200 cells and recording the number that contained intracellular black-blue formazan deposits. Verification of differentiation to monocytic cells was determined by measuring phagocytic activity (data not shown).

For data set [2], the system named is 24-hydroxylase (24Ohase) gene promoter. The experiment in a line: In vitro transcription assay (24-hydroxylase promoter luciferase reporter in ROS 17/2.8 bone cells). The format is cell-based. The note with it: for EC50: ROS 17/2.8 bone cells, luciferase reporter, FIG. 3, read-out: EC50, transcriptional activity in bone cells (24-hydroxylase gene). As for the experimental part:
In Vitro Transcription Assay
Transcription activity was measured in ROS 17/2.8 (bone) cells that were stably transfected with a 24-hydroxylase (24Ohase) gene promoter upstream of a luciferase reporter gene (Arbour et al., 1998). Cells were given a range of doses. Sixteen hours after dosing the cells were harvested and luciferase activities were measured using a luminometer.
RLU=relative luciferase units.
For orientation: Reporter assays use an easily measured gene product as a stand-in for the process of interest.

Data set [3] concerns vitamin D-deficient rats on a low calcium diet. The experiment in a line: Bone calcium mobilization (serum calcium) in vitamin D-deficient rats. It counts as in vivo, rat. The note with it: for serum calcium (bone calcium mobilization): 7020 pmol/day ip for 4 consecutive days, rats on 0.02% Ca diet. On the procedure: (§1) Intestinal Calcium Transport and Bone Calcium Mobilization
(§2) Male, weanling Sprague-Dawley rats were placed on Diet 11 (0.47% Ca) diet+AEK oil for one week followed by Diet 11 (0.02% Ca)+AEK oil for 3 weeks. The rats were then switched to a diet containing 0.47% Ca for one week followed by two weeks on a diet containing 0.02% Ca. Dose administration began during the last week on 0.02% calcium diet. Four consecutive ip doses were given approximately 24 hours apart. Twenty-four hours after the last dose, blood was collected from the severed neck and the concentration of serum calcium determined as a measure of bone calcium mobilization. The first 10 cm of the intestine was also collected for intestinal calcium transport analysis using the everted gut sac method.

Data set [4] has the same test system. Description: Intestinal calcium transport, everted gut sac method. The note with it: for intestinal calcium transport activity (everted gut sac): 7020 pmol/day for 4 consecutive days. It counts as in vivo, rat. As for the experimental part:
as §1, §2

The nature of data set [5]: Isomerization to previtamin form / storage stability. The format is physicochemical. The note with it: can be stored by a prolonged time in a freezer.
Data set [6] concerns the target T1, full-length recombinant rat vitamin D receptor (Rattus norvegicus, UniProt P13053).
T1 sequence (P13053 1-423): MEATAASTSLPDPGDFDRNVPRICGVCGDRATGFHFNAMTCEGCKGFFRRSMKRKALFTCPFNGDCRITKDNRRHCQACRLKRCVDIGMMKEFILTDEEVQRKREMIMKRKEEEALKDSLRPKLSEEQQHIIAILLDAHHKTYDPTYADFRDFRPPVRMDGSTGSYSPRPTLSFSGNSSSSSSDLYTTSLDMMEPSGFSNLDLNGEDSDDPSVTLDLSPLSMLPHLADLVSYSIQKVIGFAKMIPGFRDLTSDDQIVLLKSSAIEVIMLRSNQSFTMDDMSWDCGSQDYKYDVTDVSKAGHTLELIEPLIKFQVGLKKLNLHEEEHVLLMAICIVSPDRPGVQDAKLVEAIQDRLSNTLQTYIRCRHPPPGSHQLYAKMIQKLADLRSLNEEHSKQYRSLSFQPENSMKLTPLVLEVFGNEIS
The experiment in a line: biochemical.
Text: Vitamin D Receptor Binding
Full-length recombinant rat receptor was expressed in E. coli BL21 (DE3) Codon Plus RIL cells and purified to homogeneity using two different column chromatography systems. The first system was a nickel affinity resin that utilizes the C-terminal histidine tag on this protein. The protein that was eluted from this resin was further purified using ion exchange chromatography (S-Sepharose Fast Flow). Aliquots of the purified protein were quick frozen in liquid nitrogen and stored at −80° C. until use. For use in binding assays, the protein was diluted in TEDK50 (50 mM Tris, 1.5 mM EDTA, pH7.4, 5 mM DTT, 150 mM KCl) with 0.1% Chaps detergent.
Radiolabeled and unlabeled ligands were added to 100 mcl of the diluted protein at a final ethanol concentration of ≦10%, mixed and incubated overnight on ice to reach binding equilibrium. The following day, 100 mcl of hydroxylapatite slurry (50%) was added to each tube and mixed at 10-minute intervals for 30 minutes. The hydroxylapaptite was collected by centrifugation and then washed three times with Tris-EDTA buffer (50 mM Tris, 1.5 mM EDTA, pH 7.4) containing 0.5% Titron X-100. […] Total binding was determined from the tubes containing only radiolabeled ligand.

[7] abbreviates: relative to 1α,25-dihydroxyvitamin D3.
Where [8] appears, read: relative to 1,25(OH)2D3, in vivo, rats.

For `C=C1/C(=C(C)\C=C2/CCC[C@@]3(C)C2CCC3[C@H](C)CCCC(C)(C)O)C[C@@H](O)C[C@@H]1O` (stereo partly drawn) [Me-Cvit, 1α,25-dihydroxy-6-methylvitamin D3], the concentration for a half-maximal effect (EC50) in data set [1] amounted to 80 nM; in data set [2] it was 4 nM. Besides, in data set [1] (setting [7]), the “times less activity than 1α,25-dihydroxyvitamin D3 in HL-60 cell differentiation” value is approximately 20 times. In addition, the “times less transcriptional activity in bone cells than 1α,25-dihydroxyvitamin D3” value in data set [2] (setting [7]) is approximately 10 times. In addition, in data set [3] (FIG. 4), the “serum calcium (bone calcium mobilization)” value is given as 4.3 mg/dL. Also, the “times less potent than 1,25(OH)2D3 in mobilizing calcium from bone” value in data set [3] (setting [8]) is “about 400 times”. The “intestinal calcium transport activity (everted gut sac)” value in data set [4] (rats, FIG. 5) amounted to 4.8. The “dose dependence of intestinal calcium transport” value in data set [4] (across doses, FIG. 5) was “promotes intestinal calcium transport in a dose dependent manner”. The “times less potent than 1,25(OH)2D3 in stimulating intestinal calcium transport” value in data set [4] (setting [8]) is given as “greater than 1,000 times”. Further, in data set [5], the “stability (isomerization to previtamin D form)” value was “very easily isomerizes to its previtamin D form 5”. Besides, the inhibition constant Ki in data set [6] is 0.02 nM.
Take `C=C1C(=CC=C2CCCC3(C)C2CCC3C(C)CCCC(C)(C)O)CC(O)CC1O` (stereo not drawn) [1,25(OH)2D3, 1α,25-dihydroxyvitamin D3, reference compound]: the values for the EC50 in data set [1] and in data set [2] were 2 nM and 0.2 nM, respectively. The “serum calcium (bone calcium mobilization)” value in data set [3] (FIG. 4) came to 7.6 mg/dL. For the same compound, in data set [3] (all dosages tested, FIG. 4), the “effect on serum calcium levels across dosages” value was “increased serum calcium levels at all dosages”. Besides, the “intestinal calcium transport activity (everted gut sac)” value in data set [4] (rats, FIG. 5) is given as 8.3.
